Data as given in patent US20100056468A1, “Pyrimidine Derivatives As Anticancer Agents” (University Health Network, priority 2007, published 2010).

Tests used:
Test in all cases: In vitro cell proliferation assay (WST.1, Table 5)
SNB19 = format: cell-based; details: Homo sapiens, SNB-19, 72 h; SNB19, day 3
Experimental: (§1) These cell lines were grown in Iscove's MDM supplemented with 5% fetal calf serum (FCS), 50 μM 2-mercaptoethanol, 100 μg/ml penicillin, and 100 μg/ml streptomycin. Cell lines growing in suspension were maintained at 0.5-1.5×10^6 cell/ml, while adherent cell lines were maintained at subconfluent densities.
(§2) Cell lines were seeded in triplicate at 10^4 cells/100 μl in 96-well plates. Peripheral blood mononuclear cells were seeded in triplicate at 10^5 cells/100 μl in 96-well plate. Different test compounds were added immediately at final concentrations ranging between 0 to 100 μM. All compounds were dissolved in sterile deionized water, so water was added to the control wells. On day 3, WST.1 assay (Roche) was used to measure the effect of different test compounds on cell growth. WST.1 assay is a calorimetric assay for the nonradioactive quantification of cell proliferation, cell viability, and cytotoxicity. The assay was performed according to manufacturer's instructions (Roche). It relies on the cleavage by cellular enzymes of WST.1 (water soluble tetrazolium salt: 4-[3-(4-iodophenyl)-2-(4-nitrophenyl)-2H-5-tetrazolio]-1,3-benzene disulfonate) to formazan. The amount of formazan dye formed correlates to the number of metabolically active cells in the culture and is readily read in an ELISA microplate reader using an absorbance wavelength of 440 nm. These OD values are plotted against concentrations of different compounds and IC50 is determined for each compound.

OCI-AML-2 = format: cell-based; details: Homo sapiens, OCI-AML2, 72 h; OCI-AML-2, day 3
Experimental: as §1, §2

OCVR4 = format: cell-based; details: Homo sapiens, 72 h; OCVR4, day 3
Experimental: as §1, §2

OCI-Ly-7 = format: cell-based; details: Homo sapiens, OCI-Ly7, 72 h; OCI-Ly-7, day 3
Experimental: as §1, §2

CCD967 = format: cell-based; details: Homo sapiens, CCD-967, 72 h; CCD967 normal skin line, day 3
Experimental: as §1, §2

MDA468 = format: cell-based; details: Homo sapiens, 72 h; MDA468, day 3
Experimental: as §1, §2

MCF7 = format: cell-based; details: Homo sapiens, 72 h; MCF7, day 3
Experimental: as §1, §2

OCI-My-2 = format: cell-based; details: Homo sapiens, 72 h; OCI-My-2, day 3
Experimental: as §1, §2

COLO205 = format: cell-based; details: Homo sapiens, COLO 205, 72 h; COLO205, day 3
Experimental: as §1, §2

SKW3 = format: cell-based; details: Homo sapiens, 72 h; SKW3, day 3
Experimental: as §1, §2

PC3 = format: cell-based; details: Homo sapiens, PC-3, 72 h; PC3, day 3
Experimental: as §1, §2

OCI-AML-1 = format: cell-based; details: Homo sapiens, 72 h; OCI-AML-1, day 3
Experimental: as §1, §2

T47D = format: cell-based; details: Homo sapiens, 72 h, day 3
Experimental: as §1, §2

HS58T = format: cell-based; details: Homo sapiens, 72 h, day 3
Experimental: as §1, §2

LOX = format: cell-based, human; details: Homo sapiens, 72 h, day 3
Experimental: as §1, §2

| SMILES | IC50 (SNB19) [µM] | IC50 (OCI-AML-2) [µM] | IC50 (OCVR4) [µM] | IC50 (OCI-Ly-7) [µM] | IC50 (CCD967) [µM] | IC50 (MDA468) [µM] | IC50 (MCF7) [µM] | IC50 (OCI-My-2) [µM] | IC50 (COLO205) [µM] | IC50 (SKW3) [µM] | IC50 (PC3) [µM] | IC50 (OCI-AML-1) [µM] | IC50 (T47D) [µM] | IC50 (HS58T) [µM] | IC50 (LOX) [µM] |
| --- | --- | --- | --- | --- | --- | --- | --- | --- | --- | --- | --- | --- | --- | --- | --- |
| N#Cc1cc(=O)[nH]c(=O)n1[C@@H]1O[C@H](CO)C(O)C1O (stereo partly drawn) | > 50 | > 50 | > 50 | > 50 | > 50 | > 50 | > 50 | > 50 | > 50 | > 50 | > 50 | > 50 | > 50 | > 50 | > 50 |
| O=c1cc(I)n([C@@H]2O[C@H](CO)C(O)C2O)c(=O)[nH]1 (stereo partly drawn) | > 50 | > 50 | > 50 | > 50 | > 50 | > 50 | > 50 | 27.8 | > 50 | 18.9 | > 50 | 15.3 | > 50 | > 50 | > 50 |
| CCOC(=O)c1cc(=O)[nH]c(=O)n1[C@@H]1O[C@H](CO)C(O)C1O (stereo partly drawn) | > 50 | > 50 | > 50 | > 50 | > 50 | > 50 | > 50 | 42.3 | > 50 | > 50 | > 50 | > 50 | > 50 | > 50 | > 50 |
| [N-]=[N+]=Nc1cc(=O)[nH]c(=O)n1[C@@H]1O[C@H](CO)C(O)C1O (stereo partly drawn) | > 50 | > 50 | > 50 | > 50 | > 50 | > 50 | > 50 | > 50 | > 50 | > 50 | > 50 | > 50 | > 50 | > 50 | > 50 |
| Nc1cc(=O)[nH]c(=O)n1[C@@H]1O[C@H](CO)C(O)C1O (stereo partly drawn) | > 50 | > 50 | > 50 | > 50 | > 50 | > 50 | > 50 | > 50 | > 50 | > 50 | > 50 | > 50 | > 50 | > 50 | > 50 |
| CC(=O)OCC1OC(n2c(I)cc(=O)[nH]c2=O)C(O)C1O (stereo not drawn) | > 50 | 11.7 | > 50 | 36.2 | > 50 | > 50 | 4.4 | 1.3 | > 50 | 1.6 | > 50 | 15.2 | > 50 | > 50 | 1.1 |
| Cc1cc(=O)[nH]c(=O)n1C1OC(CO)C(O)C1O (stereo not drawn) | > 50 | > 50 | > 50 | > 50 | > 50 | > 50 | > 50 | > 50 | > 50 | > 50 | > 50 | > 50 | > 50 | > 50 | > 50 |
| Cc1cc(=O)[nH]c(=O)n1C1CC(O)C(CO)O1 (stereo not drawn) |  | > 50 |  | > 50 |  | > 50 | > 50 | > 50 |  | > 50 |  | > 50 |  |  | > 50 |
| O=C1C/C(=N\O)N(C2OC(CO)C(O)C2O)C(=O)N1 (stereo not drawn) |  | > 50 |  | > 50 |  | > 50 | > 50 | > 50 |  | > 50 |  | > 50 |  |  | > 50 |
| O=Cc1cc(=O)[nH]c(=O)n1C1OC(CO)C(O)C1O (stereo not drawn) |  | > 50 |  | > 50 |  | > 50 | > 50 | > 50 |  | > 50 |  | > 50 |  |  | > 50 |
| O=c1[nH]cc(F)c(=O)[nH]1 [5-Fluoro-uracil, reference compound] |  | 1.6 |  |  |  |  |  |  |  | 2.1 |  | 1 |  |  |  |
